According to PMC4231751, “Highly potent dUTPase inhibition by a bacterial repressor protein reveals a novel mechanism for gene expression control” (Nucleic Acids Research, 2014):

Target: T1, Φ11 dUTPase (Φ11DUT) (Staphylococcus phage phi 11, UniProt Q8SDV3)
T1 construct: tag-free, expressed from pETDuet-1; Q-sepharose and Superdex 75; homotrimer
Test: phenol red proton release assay, […] nm
Assay type: biochemical
Conditions: 30 μM dUTP, 10 nM enzyme, 1 mM Hepes pH 7.5, 5 mM MgCl2, 150 mM KCl, 293 K

SMILES: O=c1ccn([C@H]2C[C@H](O)[C@@H](COP(=O)(O)OP(=O)(O)OP(=O)(O)O)O2)c(=O)[nH]1 [dUTP]
- phenol red proton release assay, 559 nm: Proton release during the transformation of dUTP into dUMP and PPi was followed continuously
